Laboratory results taken from US20120270844A1, “METHODS FOR TREATING ALZHEIMER'S DISEASE” (aFRAXis, Inc., priority 2009, published 2012).

Columns and labels:
Type in all cases: biochemical
PAK1 = PAK1 (Homo sapiens, UniProt Q13153); test: Z'Lyte fluorescence-based (FRET) PAK kinase assay, PAK1; details: 50 μM ATP
Description: (§1) A fluorescence-based assay format is used to determine IC50 values of test compounds in vitro. Purified PAK kinase is incubated with ATP, and a test compound at various concentrations and a substrate peptide containing two fluorophores. In a second step, the reaction mix is incubated with a site-specific protease that cleaves non-phosphorylated bat not phosphorylated substrate peptide, disrupting the FRET signal generated by the two fluorophores in the cleaved peptide (Z′Lyte™ Kinase assay platform; Life Technologies).
(§2) Reagents: 50 mM HEPES, pH 7.5; 0.01% BRIJ-35; 10 nM MgCl1; 1 mM EGTA, 2 uM substrate peptide Ser/Thr20 (proprietary Life Technologies Sequence), PAK enzyme [2.42-30.8 ng for PAK1, 0.29-6 ng for PAK2, 1.5-20 ng for PAK3 and 0.1-0.86 ng for PAK4; actual enzyme amounts depend on lot activity of the enzyme preparation]
(§3) Test compounds are dissolved in DMSO at various concentrations; the final DMSO concentration in the assay reaction is 1%.
(§4) ATP concentration at Kin apparent is used in the assay [50 ┌M ATP for PAK1 assay, 75 ┌M ATP for PAK2 assay, 100 μM ATP for PAK3 assay, 5 μM ATP for PAK4 assay] in a total assay volume of 10 μl. Assay reactions are incubated at room temperature for 1 hr. Following the kinase reaction, 5 μl of 1:256 dilution of development solution A (Life Technologies) is added and the reaction mix is incubated for an additional 1 hr at room temperature.
(§5) Plates are analyzed in a standard fluorescence plate reader (Tecan or equivalent) using an excitation wavelength of 400 nn and emission wavelengths of 445 nm and 520 nm.
(§6) Inhibition of kinase reaction is determined by emission ratio=emission@445 nm/emission@520 nm
as §1, with “non-phosphorylated but” for “non-phosphorylated bat”, “peptide (Z'Lyte™” for “peptide (Z′Lyte™”, “assay platform” for “assay platform;”
as §2, with “mM MgCl2;” for “nM MgCl1;”
as §4, with “at Km” for “at Kin”, “[50 μMATP” for “[50 ┌M ATP”, “75 µM” for “75 ┌M”, “[…]” for “10 μl.”, “kinase reaction.” for “kinase reaction,”, “[…]” for “5 μl”
(§7) Plates are analyzed in a standard fluorescence plate reader (Teem or equivalent) using an excitation wavelength of 400 nm and emission wavelengths of 445 nm and 520 nm.

PAK2 = PAK2 (Homo sapiens, UniProt Q13177); test: Z'Lyte fluorescence-based (FRET) PAK kinase assay, PAK2
PAK2, sequence (Q13177 whole entry): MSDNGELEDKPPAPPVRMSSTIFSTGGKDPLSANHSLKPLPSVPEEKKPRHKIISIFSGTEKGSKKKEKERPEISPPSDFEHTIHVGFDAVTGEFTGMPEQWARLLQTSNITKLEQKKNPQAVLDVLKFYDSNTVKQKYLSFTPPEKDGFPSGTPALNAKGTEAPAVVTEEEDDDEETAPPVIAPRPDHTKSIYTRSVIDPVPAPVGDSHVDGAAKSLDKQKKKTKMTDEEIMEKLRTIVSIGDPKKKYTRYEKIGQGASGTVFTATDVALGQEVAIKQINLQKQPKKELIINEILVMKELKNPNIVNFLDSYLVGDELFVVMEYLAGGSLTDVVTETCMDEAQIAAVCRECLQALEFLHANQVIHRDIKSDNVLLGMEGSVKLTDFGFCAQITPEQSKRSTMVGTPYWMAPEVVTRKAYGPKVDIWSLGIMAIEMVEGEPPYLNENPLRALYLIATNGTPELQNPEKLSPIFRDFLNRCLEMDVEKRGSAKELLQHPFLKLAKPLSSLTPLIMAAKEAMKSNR
Description: as §1, §2, §3, §4, §5, §6
as §1, with “non-phosphorylated but” for “non-phosphorylated bat”, “peptide (Z'Lyte™” for “peptide (Z′Lyte™”, “assay platform” for “assay platform;”
as §2, with “mM MgCl2;” for “nM MgCl1;”
as §4, with “at Km” for “at Kin”, “[50 μMATP” for “[50 ┌M ATP”, “75 µM” for “75 ┌M”, “[…]” for “10 μl.”, “kinase reaction.” for “kinase reaction,”, “[…]” for “5 μl”
as §7

PAK3 = PAK3 (Homo sapiens, UniProt O75914); test: Z'Lyte fluorescence-based (FRET) PAK kinase assay, PAK3; details: 100 μM ATP
PAK3, sequence (O75914 whole entry): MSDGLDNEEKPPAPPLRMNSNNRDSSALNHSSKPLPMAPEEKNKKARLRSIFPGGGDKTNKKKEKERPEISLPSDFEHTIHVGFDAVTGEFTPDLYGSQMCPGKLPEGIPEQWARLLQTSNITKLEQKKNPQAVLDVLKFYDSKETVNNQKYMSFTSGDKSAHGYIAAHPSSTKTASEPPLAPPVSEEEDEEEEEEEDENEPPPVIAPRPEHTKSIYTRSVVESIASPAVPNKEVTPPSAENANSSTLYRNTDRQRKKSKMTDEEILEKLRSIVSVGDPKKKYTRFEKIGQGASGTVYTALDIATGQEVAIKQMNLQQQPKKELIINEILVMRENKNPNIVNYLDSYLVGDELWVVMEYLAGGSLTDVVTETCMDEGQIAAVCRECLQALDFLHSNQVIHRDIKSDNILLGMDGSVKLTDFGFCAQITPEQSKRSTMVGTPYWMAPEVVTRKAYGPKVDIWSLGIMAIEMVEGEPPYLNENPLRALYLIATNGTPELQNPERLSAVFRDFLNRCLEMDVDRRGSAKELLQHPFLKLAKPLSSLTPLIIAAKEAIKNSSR
Description: as §1, §2, §3, §4, §5, §6
as §1, with “non-phosphorylated but” for “non-phosphorylated bat”, “peptide (Z'Lyte™” for “peptide (Z′Lyte™”, “assay platform” for “assay platform;”
as §2, with “mM MgCl2;” for “nM MgCl1;”
as §4, with “at Km” for “at Kin”, “[50 μMATP” for “[50 ┌M ATP”, “75 µM” for “75 ┌M”, “[…]” for “10 μl.”, “kinase reaction.” for “kinase reaction,”, “[…]” for “5 μl”
as §7

PAK4 = PAK4 (Homo sapiens, UniProt O96013); test: Z'Lyte fluorescence-based (FRET) PAK kinase assay, PAK4; details: 5 μM ATP
PAK4, sequence (O96013 whole entry): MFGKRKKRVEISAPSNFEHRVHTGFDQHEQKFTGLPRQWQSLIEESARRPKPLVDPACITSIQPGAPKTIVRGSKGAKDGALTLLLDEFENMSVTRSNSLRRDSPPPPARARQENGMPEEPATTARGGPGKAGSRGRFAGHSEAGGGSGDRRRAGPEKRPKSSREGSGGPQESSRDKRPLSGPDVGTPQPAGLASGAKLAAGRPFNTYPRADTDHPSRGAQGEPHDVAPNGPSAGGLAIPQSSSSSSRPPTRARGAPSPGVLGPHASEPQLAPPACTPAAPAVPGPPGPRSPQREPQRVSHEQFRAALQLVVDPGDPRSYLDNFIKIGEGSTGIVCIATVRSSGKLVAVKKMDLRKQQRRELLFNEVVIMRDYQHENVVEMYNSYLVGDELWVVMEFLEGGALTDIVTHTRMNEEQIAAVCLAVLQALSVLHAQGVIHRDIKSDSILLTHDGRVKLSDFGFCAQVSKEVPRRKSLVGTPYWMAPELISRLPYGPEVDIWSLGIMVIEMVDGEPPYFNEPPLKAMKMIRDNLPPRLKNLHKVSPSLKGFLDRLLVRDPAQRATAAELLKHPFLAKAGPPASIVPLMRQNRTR
Description: as §1, §2, §3, §4, §5, §6
as §1, with “non-phosphorylated but” for “non-phosphorylated bat”, “peptide (Z'Lyte™” for “peptide (Z′Lyte™”, “assay platform” for “assay platform;”
as §2, with “mM MgCl2;” for “nM MgCl1;”
as §4, with “at Km” for “at Kin”, “[50 μMATP” for “[50 ┌M ATP”, “75 µM” for “75 ┌M”, “[…]” for “10 μl.”, “kinase reaction.” for “kinase reaction,”, “[…]” for “5 μl”
as §7

[1] = Table 1 of Example 100, 75 μM ATP
[2] = Table 1 of Example 29 (own compound numbering)
[3] = Table 1 of Example 29 (own compound numbering), 75 µM ATP

PAK1, sequence (Q13153 whole entry): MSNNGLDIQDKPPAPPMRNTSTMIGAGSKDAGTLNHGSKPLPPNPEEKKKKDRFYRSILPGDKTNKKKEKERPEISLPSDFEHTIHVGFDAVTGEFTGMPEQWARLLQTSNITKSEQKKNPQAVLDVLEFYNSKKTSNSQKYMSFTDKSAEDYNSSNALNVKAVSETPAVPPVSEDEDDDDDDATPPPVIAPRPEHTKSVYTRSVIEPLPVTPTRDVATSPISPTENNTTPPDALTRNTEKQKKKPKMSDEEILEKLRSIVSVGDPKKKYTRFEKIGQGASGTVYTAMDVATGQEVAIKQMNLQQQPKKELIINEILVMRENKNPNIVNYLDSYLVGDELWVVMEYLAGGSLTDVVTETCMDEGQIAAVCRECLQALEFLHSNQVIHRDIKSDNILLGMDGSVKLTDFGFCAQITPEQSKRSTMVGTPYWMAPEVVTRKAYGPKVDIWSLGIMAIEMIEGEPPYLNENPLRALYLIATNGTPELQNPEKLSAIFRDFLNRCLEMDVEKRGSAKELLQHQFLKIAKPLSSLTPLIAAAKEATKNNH

Structure (SMILES)	IC50 (PAK1; Table 1 of Example 100) [nM]	IC50 (PAK2; [1]) [nM]	IC50 (PAK3; Table 1 of Example 100) [nM]	IC50 (PAK4; Table 1 of Example 100) [nM]	IC50 (PAK1; [2]) [nM]	IC50 (PAK3; [2]) [nM]	IC50 (PAK4; [2]) [nM]	IC50 (PAK2; [3]) [nM]
CN1CCN(c2ccc(Nc3ncc4ccc(=O)n(C5CCCC5)c4n3)cc2)CC1 [Compound 1]	< 1000	1000 to 10000	1000 to 10000	1000 to 10000				
CN1CCN(c2ccc(Nc3ncc4ccc(=O)n(C5CCCc6ccccc65)c4n3)cc2)CC1 (centres unmarked) [Compound 5]	1000 to 10000	1000 to 10000	1000 to 10000	1000 to 10000				
CN1CCN(c2ccc(Nc3ncc4ccc(=O)n(C5CCc6ccccc65)c4n3)cc2)CC1 (centres unmarked) [Compound 6]	< 1000	1000 to 10000	1000 to 10000	1000 to 10000				
O=c1ccc2cnc(Nc3ccc(NC4CCCNC4)cc3)nc2n1Cc1ccccc1C(F)(F)F (centres unmarked) [Compound 7]	< 1000	< 1000	< 1000	< 1000				
O=c1ccc2cnc(Nc3ccc(NC4CCNCC4)cc3)nc2n1Cc1ccccc1C(F)(F)F [Compound 8]	< 1000	< 1000	< 1000	< 1000				
O=c1ccc2cnc(Nc3ccc(N4CCNCC4)cc3)nc2n1Cc1ccccc1C(F)(F)F [Compound 9]	< 1000	< 1000	< 1000	< 1000				
CN1CCN(c2ccc(Nc3ncc4ccc(=O)n([C@@H]5CCCc6ccccc65)c4n3)cc2)CC1 [Compound 10]	1000 to 10000	1000 to 10000	1000 to 10000	1000 to 10000				
O=c1ccc2cnc(Nc3ccc(OC4CCNCC4)cc3)nc2n1Cc1ccccc1C(F)(F)F [Compound 12]	< 1000	< 1000	< 1000	< 1000				
CN(c1ccc(Nc2ncc3ccc(=O)n(Cc4ccccc4C(F)(F)F)c3n2)cc1)C1CCCNC1 (centres unmarked) [Compound 13]	< 1000	< 1000	< 1000	< 1000				
O=c1ccc2cnc(Nc3ccc(OC4CCCNC4)cc3)nc2n1Cc1ccccc1C(F)(F)F (centres unmarked) [Compound 14]	< 1000	< 1000	< 1000	< 1000				
CN1CCN(c2ccc(Nc3ncc4ccc(=O)n(C5CCOc6ccccc65)c4n3)cc2)CC1 (centres unmarked) [Compound 15]	1000 to 10000	1000 to 10000	1000 to 10000	1000 to 10000				
CN(C)CC(c1ccccc1)n1c(=O)ccc2cnc(Nc3ccc(N4CCOCC4)cc3)nc21 (centres unmarked) [Compound 16]	> 10000	> 10000	> 10000	> 10000				
CN1CCN(c2ccc(Nc3ncc4ccc(=O)n(C5Cc6ccccc6C5)c4n3)cc2)CC1 [Compound 17]	< 1000	1000 to 10000	1000 to 10000	< 1000				
CN1CCN(c2ccc(Nc3ncc4ccc(=O)n(C5CCc6ccccc6C5)c4n3)cc2)CC1 (centres unmarked) [Compound 18]	< 1000	< 1000	< 1000	< 1000				
CN(C)CC(c1ccccc1)n1c(=O)ccc2cnc(Nc3ccc(N4CCN(C)CC4)cc3)nc21 (centres unmarked) [Compound 19]	> 10000	> 10000	> 10000	> 10000				
CN1CCN(c2ccc(Nc3ncc4ccc(=O)n(C5CCC(C)(C)c6ccccc65)c4n3)cc2)CC1 (centres unmarked) [Compound 20]	< 1000	< 1000	1000 to 10000	1000 to 10000				
O=c1ccc2cnc(Nc3ccc(N4CCNCC4)c(F)c3)nc2n1C1Cc2ccccc2C1 [Compound 21]	< 1000	< 1000	1000 to 10000	< 1000				
O=c1ccc2cnc(Nc3ccc(N4CCNCC4)c(F)c3)nc2n1C1CCc2ccccc2C1 (centres unmarked) [Compound 22]	< 1000	< 1000	< 1000	< 1000				
CN1CCN(c2ccc(Nc3ncc4ccc(=O)n(Cc5ccncc5)c4n3)cc2)CC1 [Compound 37]	1000 to 10000	> 10000		> 10000				

Structure (SMILES)	IC50 (PAK1; Table 1 of Example 100) [nM]	IC50 (PAK2; [1]) [nM]	IC50 (PAK3; Table 1 of Example 100) [nM]	IC50 (PAK4; Table 1 of Example 100) [nM]	IC50 (PAK1; [2]) [nM]	IC50 (PAK3; [2]) [nM]	IC50 (PAK4; [2]) [nM]	IC50 (PAK2; [3]) [nM]
CN1CCN(c2ccc(Nc3ncc4ccc(=O)n(Cc5cccnc5)c4n3)cc2)CC1 [Compound 38]	1000 to 10000	> 10000		> 10000				
Cc1ccccc1Cn1c(=O)ccc2cnc(Nc3ccc(N4CCN(C)CC4)cc3)nc21 [Compound 39]	< 1000	< 1000		1000 to 10000				
CN1CCN(c2ccc(Nc3ncc4ccc(=O)n(Cc5ccccc5C#N)c4n3)cc2)CC1 [Compound 40]	< 1000	< 1000		1000 to 10000				
CN1CCN(c2ccc(Nc3ncc4ccc(=O)n(Cc5ccccc5OC(F)(F)F)c4n3)cc2)CC1 [Compound 41]	< 1000	< 1000		1000 to 10000				
CN1CCN(c2ccc(Nc3ncc4ccc(=O)n(Cc5ccccc5C(F)(F)F)c4n3)cc2)CC1 [Compound 42]	< 1000	< 1000	< 1000	< 1000				
CN1CCN(c2ccc(Nc3ncc4ccc(=O)n(Cc5ccccc5SC(F)(F)F)c4n3)cc2)CC1 [Compound 43]	< 1000	< 1000	< 1000	< 1000				
CN1CCN(c2ccc(Nc3ncc4ccc(=O)n(Cc5ccccc5OC(F)F)c4n3)cc2)CC1 [Compound 44]	< 1000	< 1000	< 1000	< 1000				
CN1CCN(c2ccc(Nc3ncc4ccc(=O)n(Cc5c(F)cccc5C(F)(F)F)c4n3)cc2)CC1 [Compound 112]					< 1000	< 1000	< 1000	
O=c1ccc2cnc(Nc3ccc(N4CCNCC4)c(F)c3)nc2n1Cc1c(Cl)cccc1C1CC1 [Compound 137]					< 1000	< 1000	1000 to 10000	
CSc1cccc(F)c1Cn1c(=O)ccc2cnc(Nc3ccc(N4CCN(C)CC4)cc3)nc21 [Compound 138]					< 1000	< 1000	< 1000	
CN1CCN(c2ccc(Nc3nccc(-c4ccc(O)nc4)n3)cc2)CC1 [Compound 143]					1000 to 10000		> 10000	> 10000
Cc1cc(Nc2nccc(-c3ccc(NCCN)nc3)n2)ccc1N1CCN(C)CC1 [Compound 152]					< 1000	1000 to 10000	< 1000	
O=c1c(-c2ccccc2)cc2cnc(Nc3ccc(N4CCNCC4)cc3)nc2n1Cc1ccccc1C(F)(F)F [Compound 163]					< 1000	< 1000	1000 to 10000	
CN1CCN(c2ccc(Nc3ncc4ccc(=O)n(Cc5c(F)cccc5C(F)(F)F)c4n3)cc2)CC1 [compound 58]	< 1000		< 1000	< 1000				
CN1CCN(c2ccc(Nc3ncc4ccc(=O)n(Cc5ccccc5)c4n3)cc2)CC1 [compound 80]					1000 to 10000		> 10000	1000 to 10000
Cc1cc(Nc2nccc(-c3ccc(NCCN)nc3)n2)ccc1N1CCN(C)CC1 [compound 83]	< 1000		1000 to 10000	< 1000				
O=c1c(-c2ccccc2)cc2cnc(Nc3ccc(N4CCNCC4)cc3)nc2n1Cc1ccccc1C(F)(F)F [compound 94]	< 1000		< 1000	1000 to 10000				
CN1CCN(c2ccc(Nc3ncc4ccc(=O)n(Cc5ccccc5OC(F)(F)F)c4n3)cc2)CC1 [compound 97]						< 1000	< 1000	
CSc1cccc(F)c1Cn1c(=O)ccc2cnc(Nc3ccc(N4CCN(C)CC4)cc3)nc21 [compound 99]	< 1000		< 1000	< 1000				
